Reference: US8987234B2, “Complex for treatment and/or prophylaxis of parasitic infections” (IPCA Laboratories Ltd., priority 2009, dated 2015)
Blank lines part the entries; values can stand above or below the compound they belong to.

Columns and labels:
[1] = tablet formulation, Malarone label; cited from earlier work
[2] = physchem; type: physicochemical
[3] = Intrinsic dissolution/solubility under standard USP conditions (40% isopropyl alcohol with phosphate buffer pH 8.0); type: physicochemical
[4] = Comparative rat pharmacokinetic study, plasma analyzed by LC MS/MS; type: in vivo, albino Wistar rats
Procedure: Comparative pharmacokinetic study of complex of example-I at two doses with physical mixtures of Atovaquone and Proguanil hydrochloride (Malarone) was carried for profiling of bioavailability of Atovaquone, Proguanil and Cycloguanil from all three samples. Four groups of 13-14 weeks old five albino Wistar rats were made through random selection. Group I served as a vehicle control and received only 0.5% sodium carboxymethyl cellulose, group II and group III received two different doses of complex of Example I, and group IV received a physical mixture of Atovaquone and Proguanil hydrochloride (Malarone). The dose volume used for this study was 10 ml/Kg of body weight. Orbital sinus was used as blood collection site and the blood was collected in EDTA coated microcentrifuge tubes at different time points between 0 min (pre dose) to 240 hrs. Plasma samples were analyzed by LC MS/MS. Comparative pharmacokinetic profiles of Atovaquone, Proguanil and Cycloguanil are as given below in table 3, 4, and 5 respectively: […]

pKa [2]: 8.39
Structure (SMILES): O=C1C(O)=C([C@H]2CC[C@H](c3ccc(Cl)cc3)CC2)C(=O)c2ccccc21 [Atovaquone, trans-2-[4-(4-chlorophenyl)cyclohexyl]-3-hydroxy-1,4-naphthoquinone]
absolute bioavailability of Atovaquone [1]: 23%

% Dissolution Atovaquone ([3]; 1 Hrs.): 2.64%
% Dissolution Proguanil ([3]; 1 Hrs.): 1.97%
% Dissolution Atovaquone ([3]; 2 Hrs.): 5.61%
% Dissolution Proguanil ([3]; 2 Hrs.): 3.64%
% Dissolution Atovaquone ([3]; 3 Hrs.): 7.72%
% Dissolution Proguanil ([3]; 3 Hrs.): 5.22%
% Dissolution Atovaquone ([3]; 4 Hrs.): 9.75%
% Dissolution Proguanil ([3]; 4 Hrs.): 6.38%
intrinsic solubility of Atovaquone compared with physical mixture of Atovaquone-Proguanil ([3]; 40% isopropyl alcohol with phosphate buffer pH 8.0): almost doubled
Atovaquone bioavailability increase versus corresponding ratio of physical mixture [4]: increased by at least two times
AUC0-inf of Atovaquone ([4]; Atovaquone dose 6.166 mg/kg): 298501.894 ng/hrxml
Cmax of Atovaquone ([4]; Atovaquone dose 6.166 mg/kg): 4925.009 ng/mL
MRT of Atovaquone ([4]; Atovaquone dose 6.166 mg/kg): 39.240 h
T1/2 of Atovaquone ([4]; Atovaquone dose 6.166 mg/kg): 26.833 h
Tmax of Atovaquone ([4]; Atovaquone dose 6.166 mg/kg): 19.200 h
Vd of Atovaquone ([4]; Atovaquone dose 6.166 mg/kg): 0.001 L/kg
AUC0-inf of Atovaquone ([4]; Atovaquone dose 6.166 mg/kg (Table 3)): 298501.894 ± 117805.568 ng/hr × mL
AUC0-inf of Atovaquone ([4]; Atovaquone dose 13.005 mg/kg): 472148.864 ng/hrxml
Cmax of Atovaquone ([4]; Atovaquone dose 13.005 mg/kg): 6779.226 ng/mL
MRT of Atovaquone ([4]; Atovaquone dose 13.005 mg/kg): 50.644 h
T1/2 of Atovaquone ([4]; Atovaquone dose 13.005 mg/kg): 29.542 h
Tmax of Atovaquone ([4]; Atovaquone dose 13.005 mg/kg): 12.8 h
Vd of Atovaquone ([4]; Atovaquone dose 13.005 mg/kg): 0.001 L/kg
AUC0-inf of Cycloguanil ([4]; Proguanil dose 4.2642 mg/kg): 38.910 ng/hrxml
AUC0-inf of Proguanil ([4]; Proguanil dose 4.2642 mg/kg): 497.306 ng/hrxml
Cl of Cycloguanil ([4]; Proguanil dose 4.2642 mg/kg): 0.118 L/kg/hr
Cl of Proguanil ([4]; Proguanil dose 4.2642 mg/kg): 0.15 mL/min/kg
Cmax of Cycloguanil ([4]; Proguanil dose 4.2642 mg/kg): 4.667 ng/ml
Cmax of Proguanil ([4]; Proguanil dose 4.2642 mg/kg): 87.400 ng/mL
MRT of Cycloguanil ([4]; Proguanil dose 4.2642 mg/kg): 5.753 hr
MRT of Proguanil ([4]; Proguanil dose 4.2642 mg/kg): 5.581 h
T1/2 of Cycloguanil ([4]; Proguanil dose 4.2642 mg/kg): 5.620 hr
T1/2 of Proguanil ([4]; Proguanil dose 4.2642 mg/kg): 4.779 h
Tmax of Cycloguanil ([4]; Proguanil dose 4.2642 mg/kg): 3.200 hr
Tmax of Proguanil ([4]; Proguanil dose 4.2642 mg/kg): 2.800 h
Vd of Cycloguanil ([4]; Proguanil dose 4.2642 mg/kg): 0.873 L/Kg
Vd of Proguanil ([4]; Proguanil dose 4.2642 mg/kg): 0.061 L/kg
AUC0-inf of Cycloguanil ([4]; Proguanil dose 8.995 mg/kg): 34.797 ng/hrxml
AUC0-inf of Proguanil ([4]; Proguanil dose 8.995 mg/kg): 485.239 ng/hrxml
Cl of Cycloguanil ([4]; Proguanil dose 8.995 mg/kg): 0.261 L/kg/hr
Cl of Proguanil ([4]; Proguanil dose 8.995 mg/kg): 0.317 mL/min/kg
Cmax of Cycloguanil ([4]; Proguanil dose 8.995 mg/kg): 6.954 ng/ml
Cmax of Proguanil ([4]; Proguanil dose 8.995 mg/kg): 94.515 ng/mL
MRT of Cycloguanil ([4]; Proguanil dose 8.995 mg/kg): 5.106 hr
MRT of Proguanil ([4]; Proguanil dose 8.995 mg/kg): 4.933 h
T1/2 of Cycloguanil ([4]; Proguanil dose 8.995 mg/kg): 4.406 hr
T1/2 of Proguanil ([4]; Proguanil dose 8.995 mg/kg): 13.149 h
Tmax of Cycloguanil ([4]; Proguanil dose 8.995 mg/kg): 2.00 hr
Tmax of Proguanil ([4]; Proguanil dose 8.995 mg/kg): 1.15 h
Vd of Cycloguanil ([4]; Proguanil dose 8.995 mg/kg): 1.618 L/Kg
Vd of Proguanil ([4]; Proguanil dose 8.995 mg/kg): 0.349 L/kg
Structure (SMILES): CC(C)NC(=N)NC(=N)Nc1ccc(Cl)cc1.O=C1C(O)=C([C@H]2CC[C@H](c3ccc(Cl)cc3)CC2)C(=O)c2ccccc21 [Complex, trans-Atovaquone-Proguanil complex (1:1)]
